Results published in ChEMBL document CHEMBL1150487, “Cyanoguanidine bioisosteres in potassium channel openers: Evaluation of 3,4-disubstituted-1,2,5-thiadiazole-1-oxides” (Bioorg Med Chem Lett, 1996).

Experiments:
Type in all cases: functional
Rattus norvegicus [1] = organism: Rattus norvegicus; assay: Membrane potential change (fluorescence-based in vitro assay using DIBAC4 as indicator) in A-10 smooth muscle cell, to estimate potassium channel opening activity at 10 uM
Rattus norvegicus [2] = organism: Rattus norvegicus; assay: Membrane potential change (fluorescence-based in vitro assay using DIBAC4 as indicator) in A-10 smooth muscle cell, to estimate potassium channel opening activity at 0.1 uM
Rattus norvegicus [3] = organism: Rattus norvegicus; assay: Membrane potential change (fluorescence-based in vitro assay using DIBAC4 as indicator) in A-10 smooth muscle cell, to estimate potassium channel opening activity at 1 uM

SMILES	Change (Rattus norvegicus [1])	Change (Rattus norvegicus [2])	Change (Rattus norvegicus [3])
CC(C)CNc1n[s+]([O-])nc1Nc1cc(Cl)cc(Cl)c1 (stereo unspecified)	10.8%	-1.32%	-3.59%
CCCCCNc1n[s+]([O-])nc1Nc1cc(Cl)cc(Cl)c1 (stereo unspecified)	-26.3%	8.48%	-10.6%
CC(C)(C)CNc1n[s+]([O-])nc1Nc1cc(Cl)cc(Cl)c1 (stereo unspecified)	1.84%	1.77%	5.58%
CCCCCNc1n[s+]([O-])nc1Nc1ccccc1 (stereo unspecified)	-5.23%	-3.76%	-7.68%
CC(C)CCNc1n[s+]([O-])nc1Nc1cc(Cl)cc(Cl)c1 (stereo unspecified)	-45.5%	10.7%	-12%
[O-][s+]1nc(NCCc2ccccc2)c(Nc2cc(Cl)cc(Cl)c2)n1 (stereo unspecified)	–	-1.01%	-1.29%
[O-][s+]1nc(Nc2cc(Cl)cc(Cl)c2)c(NC2CCCCC2)n1 (stereo unspecified)	-17.7%	2.05%	-2.39%
CC(C)Nc1n[s+]([O-])nc1Nc1cc(Cl)cc(Cl)c1 (stereo unspecified)	-9.36%	2.12%	-5.37%
CCCNc1n[s+]([O-])nc1Nc1cc(Cl)cc(Cl)c1 (stereo unspecified)	-11.1%	8.06%	5.85%
[O-][s+]1nc(NCCCCc2ccccc2)c(Nc2cc(Cl)cc(Cl)c2)n1 (stereo unspecified)	4.02%	-7.2%	-6.18%
[O-][s+]1nc(Nc2cc(Cl)cc(Cl)c2)c(NC2CC2)n1 (stereo unspecified)	-3.96%	0.95%	-1.1%
CCCNc1n[s+]([O-])nc1Nc1ccccc1 (stereo unspecified)	-1.05%	-3.75%	-4.86%
CC(N/C(=N\C#N)Nc1ccncc1)C(C)(C)C (stereo unspecified)	-57.4%	-5.89%	-45.6%
CCCCNc1n[s+]([O-])nc1Nc1cc(Cl)cc(Cl)c1 (stereo unspecified)	-44.7%	1.29%	-10.3%
[O-][s+]1nc(NCc2ccccc2)c(Nc2cc(Cl)cc(Cl)c2)n1 (stereo unspecified)	0.84%	7.83%	-0.91%
CNc1n[s+]([O-])nc1Nc1cc(Cl)cc(Cl)c1 (stereo unspecified)	-33.6%	-16%	-25.1%
CCC(C)Nc1n[s+]([O-])nc1Nc1cc(Cl)cc(Cl)c1 (stereo unspecified)	-19%	-0.43%	1.42%
[O-][s+]1nc(Nc2cc(Cl)cc(Cl)c2)c(NC2CCCC2)n1 (stereo unspecified)	-4.17%	-5.82%	-1.36%
Nc1n[s+]([O-])nc1Nc1cc(Cl)cc(Cl)c1 (stereo unspecified)	-4.58%	10.2%	-4.81%
[O-][s+]1nc(NCCCc2ccccc2)c(Nc2cc(Cl)cc(Cl)c2)n1 (stereo unspecified)	14.1%	–	-19.7%
[O-][s+]1nc(Nc2cc(Cl)cc(Cl)c2)c(NC2CCC2)n1 (stereo unspecified)	-21.8%	-5.89%	-4.23%
